Laboratory results reported in patent publication US8569344B2, “N-piperidinyl acetamide derivatives as calcium channel blockers” (Zalicus Pharmaceuticals Ltd., priority 2008, dated 2013).
Like-named read-outs stand apart in the source and are kept apart here.

Assays:
Format in all cases: cell-based
[1] = target: T1, human α1G T-type channels (Homo sapiens, UniProt O43497); assay: T-type calcium channel block, whole cell patch clamp in HEK cells (α1G); details: HEK cells, patch clamp, mainly non-inactivated protocol; values above 10 μM shown as 10 μM, below 0.30 μM shown as 0.30 μM; read-out: T-type Calcium Channel Block α1G IC50
T1 construct: expressed in transfected cells; host or cells: HEK 293

[2] = target: T2, human α1H T-type channels (Homo sapiens, UniProt O95180); assay: T-type calcium channel block, whole cell patch clamp in HEK cells (α1H); details: HEK cells, patch clamp, mainly non-inactivated protocol; values above 10 μM shown as 10 μM; read-out: T-type Calcium Channel Block α1H IC50
T2 construct: expressed in transfected cells; host or cells: HEK 293

hERG K+ channel = hERG K+ channel (Homo sapiens, UniProt Q12809); assay: hERG K+ Channel Block
Sequence of hERG K+ channel (Q12809 whole entry): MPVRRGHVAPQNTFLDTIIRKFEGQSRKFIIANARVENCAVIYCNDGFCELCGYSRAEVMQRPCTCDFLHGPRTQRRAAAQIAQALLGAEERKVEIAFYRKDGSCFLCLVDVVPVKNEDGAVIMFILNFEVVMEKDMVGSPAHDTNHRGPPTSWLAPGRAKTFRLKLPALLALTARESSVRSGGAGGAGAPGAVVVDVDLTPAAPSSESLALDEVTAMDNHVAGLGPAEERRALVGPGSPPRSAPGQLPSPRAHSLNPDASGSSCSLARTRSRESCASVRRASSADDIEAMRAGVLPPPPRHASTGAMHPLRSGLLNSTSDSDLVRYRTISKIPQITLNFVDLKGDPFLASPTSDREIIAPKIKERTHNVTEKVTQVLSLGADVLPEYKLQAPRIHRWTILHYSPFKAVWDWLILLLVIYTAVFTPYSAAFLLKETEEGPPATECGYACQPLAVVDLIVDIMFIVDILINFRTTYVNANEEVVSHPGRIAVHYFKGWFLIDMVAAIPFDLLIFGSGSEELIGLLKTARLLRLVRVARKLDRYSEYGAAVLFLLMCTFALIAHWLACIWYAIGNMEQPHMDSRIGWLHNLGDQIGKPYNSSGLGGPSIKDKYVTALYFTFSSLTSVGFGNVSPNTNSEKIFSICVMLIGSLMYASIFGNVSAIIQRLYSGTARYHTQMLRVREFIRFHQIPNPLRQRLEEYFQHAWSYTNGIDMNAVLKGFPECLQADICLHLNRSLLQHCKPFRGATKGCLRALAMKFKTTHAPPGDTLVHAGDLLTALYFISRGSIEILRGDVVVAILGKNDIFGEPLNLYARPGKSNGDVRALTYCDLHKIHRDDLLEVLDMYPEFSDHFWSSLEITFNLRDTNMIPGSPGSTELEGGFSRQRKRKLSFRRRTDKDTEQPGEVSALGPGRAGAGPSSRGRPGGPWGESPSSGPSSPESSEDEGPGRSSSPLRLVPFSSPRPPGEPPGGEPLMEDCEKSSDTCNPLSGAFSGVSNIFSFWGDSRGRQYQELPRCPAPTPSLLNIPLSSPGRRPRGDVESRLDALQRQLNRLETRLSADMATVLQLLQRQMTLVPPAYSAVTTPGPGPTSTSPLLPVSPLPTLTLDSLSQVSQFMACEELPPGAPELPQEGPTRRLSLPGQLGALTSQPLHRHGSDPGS

T2 sequence (O95180 whole entry): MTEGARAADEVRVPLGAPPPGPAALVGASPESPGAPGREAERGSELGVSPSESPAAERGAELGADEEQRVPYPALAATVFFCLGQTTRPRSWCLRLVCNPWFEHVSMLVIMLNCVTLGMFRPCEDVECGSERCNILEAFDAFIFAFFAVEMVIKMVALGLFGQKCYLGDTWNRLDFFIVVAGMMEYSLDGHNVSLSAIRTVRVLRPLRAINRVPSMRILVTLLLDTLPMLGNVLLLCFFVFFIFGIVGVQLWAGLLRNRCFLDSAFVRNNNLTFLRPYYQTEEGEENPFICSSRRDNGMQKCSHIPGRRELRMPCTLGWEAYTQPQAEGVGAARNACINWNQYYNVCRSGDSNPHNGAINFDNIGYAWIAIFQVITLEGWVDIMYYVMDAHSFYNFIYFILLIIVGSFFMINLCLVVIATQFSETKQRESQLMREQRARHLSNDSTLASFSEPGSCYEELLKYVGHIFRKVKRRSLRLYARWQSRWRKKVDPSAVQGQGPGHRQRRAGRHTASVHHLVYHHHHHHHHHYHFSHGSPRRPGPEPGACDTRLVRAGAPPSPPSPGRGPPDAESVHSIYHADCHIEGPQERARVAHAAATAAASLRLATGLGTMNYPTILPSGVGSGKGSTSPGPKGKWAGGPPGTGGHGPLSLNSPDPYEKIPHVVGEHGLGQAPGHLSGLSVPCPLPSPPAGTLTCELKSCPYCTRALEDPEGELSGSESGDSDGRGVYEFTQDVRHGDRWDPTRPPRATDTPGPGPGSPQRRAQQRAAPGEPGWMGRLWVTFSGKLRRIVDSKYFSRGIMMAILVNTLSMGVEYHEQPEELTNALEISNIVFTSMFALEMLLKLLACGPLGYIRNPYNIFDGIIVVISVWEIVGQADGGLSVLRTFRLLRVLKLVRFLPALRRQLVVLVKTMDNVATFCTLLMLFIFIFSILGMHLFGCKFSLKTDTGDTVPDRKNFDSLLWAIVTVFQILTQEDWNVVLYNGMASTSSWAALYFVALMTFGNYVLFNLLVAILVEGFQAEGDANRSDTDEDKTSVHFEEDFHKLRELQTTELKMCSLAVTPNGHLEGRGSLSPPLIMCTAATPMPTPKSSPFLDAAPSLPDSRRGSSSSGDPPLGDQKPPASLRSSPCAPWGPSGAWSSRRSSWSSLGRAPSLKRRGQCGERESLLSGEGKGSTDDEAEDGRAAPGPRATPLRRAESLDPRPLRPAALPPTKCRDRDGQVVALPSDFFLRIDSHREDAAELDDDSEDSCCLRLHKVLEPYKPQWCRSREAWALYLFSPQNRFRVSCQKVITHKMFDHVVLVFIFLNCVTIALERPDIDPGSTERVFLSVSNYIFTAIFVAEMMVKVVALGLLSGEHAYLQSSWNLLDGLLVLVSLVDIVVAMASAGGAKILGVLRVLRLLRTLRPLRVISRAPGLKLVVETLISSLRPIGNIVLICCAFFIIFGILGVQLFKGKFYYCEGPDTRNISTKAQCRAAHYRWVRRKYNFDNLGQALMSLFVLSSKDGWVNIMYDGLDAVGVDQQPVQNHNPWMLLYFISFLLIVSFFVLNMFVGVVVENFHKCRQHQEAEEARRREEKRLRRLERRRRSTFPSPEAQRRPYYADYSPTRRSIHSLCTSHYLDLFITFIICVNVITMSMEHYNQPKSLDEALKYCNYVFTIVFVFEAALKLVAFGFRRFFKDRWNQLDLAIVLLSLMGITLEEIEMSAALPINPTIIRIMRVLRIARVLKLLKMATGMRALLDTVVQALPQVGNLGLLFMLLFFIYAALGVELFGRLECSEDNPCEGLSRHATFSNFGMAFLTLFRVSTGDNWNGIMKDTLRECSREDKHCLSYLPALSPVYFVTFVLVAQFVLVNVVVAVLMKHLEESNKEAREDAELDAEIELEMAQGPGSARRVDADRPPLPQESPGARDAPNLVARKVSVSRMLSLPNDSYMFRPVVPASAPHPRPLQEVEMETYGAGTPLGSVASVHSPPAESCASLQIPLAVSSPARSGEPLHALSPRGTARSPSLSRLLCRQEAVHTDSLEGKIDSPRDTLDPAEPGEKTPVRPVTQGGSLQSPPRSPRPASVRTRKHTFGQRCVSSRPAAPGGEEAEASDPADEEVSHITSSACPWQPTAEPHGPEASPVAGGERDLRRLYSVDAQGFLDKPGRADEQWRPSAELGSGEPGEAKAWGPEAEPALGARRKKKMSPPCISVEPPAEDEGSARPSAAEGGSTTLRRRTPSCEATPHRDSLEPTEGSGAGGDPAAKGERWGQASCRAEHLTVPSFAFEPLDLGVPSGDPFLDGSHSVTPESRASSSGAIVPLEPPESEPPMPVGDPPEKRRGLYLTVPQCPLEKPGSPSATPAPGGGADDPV

Compound | IC50 [1] | IC50 [2] | IC50 (hERG K+ channel) | IC50 (hERG K+ channel; human)
CC(C)(C(=O)NCCN1CCC(CNC(=O)c2cccc(Br)c2)CC1)C(F)(F)F [Compound 493, 3-bromo-N-((1-(2-(3,3,3-trifluoro-2,2-dimethylpropanamido)ethyl)piperidin-4-yl)methyl)benzamide] | < 0.3 µM | 0.06 µM | 2.5 µM | –
COc1cc(F)cc(C(=O)NCC2CCN(CC(=O)N(C)C(C)(C)C(F)(F)F)CC2)c1 [Compound 581, 3-fluoro-5-methoxy-N-((1-(2-(methyl(1,1,1-trifluoro-2-methyl-propan-2-yl)amino)-2-oxoethyl)piperidin-4-yl)methyl)benzamide] | < 0.3 µM | 0.21 µM | 11 µM | –
O=C(NCC1CCN(CC(=O)N2CCC[C@H]2C(F)(F)F)CC1)c1cccc(OC(F)(F)F)c1 [Compound 471, (S)-N-((1-(2-oxo-2-(2-(trifluoromethyl)pyrrolidin-1-yl)ethyl)piperidin-4-yl)methyl)-3-(trifluoromethoxy)benzamide] | < 0.3 µM | 0.06 µM | 2.3 µM | –
Cc1cc(F)cc(C(=O)NCC2CCN(CC(=O)NC3(C)CCC3)CC2)c1 [Compound 476, 3-fluoro-5-methyl-N-((1-(2-(1-mtrhylcyclobutylamino)-2-oxoethyl)piperidin-4-yl)methyl) benzamide] | < 0.3 µM | 0.14 µM | – | ≥ 16.6 µM
COCC(C)(C)NC(=O)CN1CCC(CNC(=O)c2cc(F)cc(OC)c2)CC1 [Compound 567, 3-fluoro-5-methoxy-N-((1-(2-(1-methoxy-2-methylpropan-2-ylamino)-2-oxoethyl)piperidin-4-yl)methyl)benzamide] | < 0.3 µM | 0.35 µM | – | ≥ 17 µM
CN(C(=O)CN1CCC(CNC(=O)c2cc(F)cc(Cl)c2)CC1)C1(C)CCC1 [Compound 583, 3-chloro-5-fluoro-N-((1-(2-(methyl(1-methylcyclobutyl)amino)-2-oxoethyl)piperidin-4-yl)methyl)benzamide] | < 0.3 µM | 0.15 µM | 1.7 µM | –
CN(C(=O)CN1CCC(CNC(=O)c2cccc(Cl)c2)CC1)C(C)(C)C(F)(F)F [Compound 580, 3-chloro-N-((1-(2-(methyl(1,1,1-trifluoro-2-methylpropan-2-yl)amino)-2-oxoethyl)piperidin-4-yl)methyl)benzamide] | < 0.3 µM | 0.22 µM | – | ≥ 8.3 µM
O=C(NCC1CCN(CC(=O)N2CCC[C@H]2C(F)(F)F)CC1)c1cccc(Cl)c1 [Compound 469, (S)-3-chloro-N-((1-(2-oxo-2-(2-(trifluoromethyl)pyrrolidin-1-yl)ethyl)piperidin-4-yl)methyl)benzamide] | < 0.3 µM | 0.12 µM | 9.5 µM | –
COc1cc(F)cc(C(=O)NCC2CCN(CCNC(=O)C3(C(F)(F)F)CCC3)CC2)c1 [Compound 513, 3-fluoro-5-methoxy-N-((1-(2-(1-(trifluoromethyl)cyclobutanecarboxamido)ethyl)piperidin-4-yl)methyl)benzamide] | < 0.3 µM | 0.09 µM | – | ≥ 16.6 µM
Cc1cc(F)cc(C(=O)NCC2CCN(CCNC(=O)C(C)(C)C(F)(F)F)CC2)c1 [Compound 489, 3-fluoro-5-methyl-N-((1-(2-(3,3,3-trifluoro-2,2-dimethylpropanamido)ethyl)piperidin-4-yl)methyl)benzamide] | 0.37 µM | 0.12 µM | 8.8 µM | –
CC(C)(C)NC(=O)CN1CCC(CNC(=O)c2cccc(OC(F)(F)F)c2)CC1 [Compound 375, N-((1-(2-(tert-butylamino)-2-oxoethyl)piperidin-4-yl)methyl)-3-(trifluoromethoxy)benzamide] | < 0.3 µM | 0.07 µM | 8.8 µM | –
CS(=O)(=O)NC1(CN2CCC(CC(=O)Nc3cc(C(F)(F)F)cc(C(F)(F)F)c3)CC2)CCCC1 [Compound 160, N-(3,5-bis(trifluoromethyl)phenyl)-2-(1-((1-(methylsulfonamido)cyclopentyl)methyl)piperidin-4-yl)acetamide] | 0.02 µM | 0.5 µM | 0.19 µM | –
COc1cc(OC)cc(C(=O)NCC2CCN(CCNC(=O)C3(C(F)(F)F)CC3)CC2)c1 [Compound 500, 3,5-dimethoxy-N-((1-(2-(1-(trifluoromethyl)cyclopropanecarbox-amido)ethyl)piperidin-4-yl)methyl) benzamide] | < 0.3 µM | 0.18 µM | 5.5 µM | –
CN(C(=O)CN1CCC(CNC(=O)c2cccc(C(F)(F)F)c2)CC1)C(C)(C)C [Compound 542, N-((1-(2-(tert-butyl(methyl)amino)-2-oxoethyl)piperidin-4-yl)methyl)-3-(trifluoromethyl)benzamide] | 0.98 µM | 0.45 µM | 6.4 µM | –
O=C(NCC1CCN(CC(=O)N2CCC[C@H]2C(F)(F)F)CC1)c1cc(F)cc(Cl)c1 [Compound 470, (S)-3-chloro-5-fluoro-N-((1-(2-oxo-2-(2-(trifluoromethyl)pyrrolidin-1-yl)ethyl)piperidin-4-yl)methyl)benzamide] | < 0.3 µM | 0.07 µM | 2.6 µM | –
COc1cc(OC)cc(C(=O)NCC2CCN(CC(=O)NC3(C)CCC3)CC2)c1 [Compound 478, 3,5-dimethoxy-N-((1-(2-(1-methylcyclobutylamino)-2-oxoethyl)piperidin-4-yl)methyl) benzamide] | < 0.3 µM | 0.11 µM | – | ≥ 16.6 µM
CC(C)(NC(=O)CN1CCC(CNC(=O)c2cccc(OC(F)(F)F)c2)CC1)C(F)(F)F [Compound 462, N-((1-(2-oxo-2-(1,1,1-trifluoro-2-methylpropan-2-ylamino)ethyl)piperidin-4-yl)methyl)-3-(trifluoromethoxy) benzamide] | < 0.3 µM | 0.03 µM | 4.1 µM | –
O=C(NCC1CCN(CCNC(=O)C2(C(F)(F)F)CCC2)CC1)c1cc(F)cc(Cl)c1 [Compound 511, 3-chloro-5-fluoro-N-((1-(2-(1-(trifluoromethyl)cyclobutanecarboxamido)ethyl)piperidin-4-yl)methyl)benzamide] | < 0.3 µM | 0.09 µM | 2.9 µM | –
CC(C)NC(=O)CN1CCC(CNC(=O)c2cc(C(F)(F)F)cc(C(F)(F)F)c2)CC1 [Compound 344, N-((1-(2-(isopropylamino)-2-oxoethyl)piperidin-4-yl)methyl)-3,5-bis(trifluoromethyl)benzamide] | < 0.3 µM | 0.12 µM | 9.1 µM | –
CC(C)(C)NC(=O)CN1CCC(CNC(=O)c2cccc(Br)c2)CC1 [Compound 374, 3-bromo-N-((1-(2-(tert-butylamino)-2-oxoethyl)piperidin-4-yl)methyl) benzamide] | < 0.3 µM | 0.09 µM | 7.8 µM | –
O=C(NCC1CCN(CC(=O)N2CCC[C@H]2C(F)(F)F)CC1)c1cccc(Br)c1 [Compound 468, (S)-3-bromo-N-((1-(2-oxo-2-(2-(trifluoromethyl)pyrrolidin-1-yl)ethyl)piperidin-4-yl)methyl)benzamide] | < 0.3 µM | 0.09 µM | 4.2 µM | –
COCC(C)(C)NC(=O)CN1CCC(CNC(=O)c2cc(F)cc(Cl)c2)CC1 [Compound 538, 3-chloro-5-fluoro-N-((1-(2-(1-methoxy-2-methylpropan-2-ylamino)-2-oxoethyl)piperidin-4-yl)methyl)benzamide] | < 0.3 µM | 0.06 µM | 13 µM | –
CC(C)(C)C(=O)NCCN1CCC(CC(=O)Nc2cc(C(F)(F)F)cc(C(F)(F)F)c2)CC1 [Compound 334, N-(2-(4-(2-(3,5-bis(trifluoromethyl)phenylamino)-2-oxoethyl)piperidin-1-yl)ethyl)pivalamide] | < 0.3 µM | 0.22 µM | 0.92 µM | –
CN(C(=O)CN1CCC(CNC(=O)c2cccc(OC(F)(F)F)c2)CC1)C(C)(C)C [Compound 545, N-((1-(2-(tert-butyl(methyl)amino)-2-oxoethyl)piperidin-4-yl)methyl)-3-(trifluoromethoxy)benzamide] | 0.47 µM | 0.21 µM | 6.6 µM | –
Cc1cc(F)cc(C(=O)NCC2CCN(CC(=O)NC(C)(C)C)CC2)c1 [Compound 363, N-((1-(2-(tert-buylamino)-2-oxoethyl)piperidin-4-yl)methyl)-3-fluoro-5-methylbenzamide] | < 0.3 µM | 0.2 µM | – | ≥ 8.3 µM
COc1cc(F)cc(C(=O)NCC2CCN(CC(=O)N(C)C(C)(C)C)CC2)c1 [Compound 541, N-((1-(2-(tert-butyl(methyl)amino)-2-oxoethyl)piperidin-4-yl)methyl)-3-fluoro-5-methoxybenzamide] | 0.31 µM | 0.41 µM | – | ≥ 17 µM
CN(C(=O)CN1CCC(CNC(=O)c2cc(F)cc(Cl)c2)CC1)C(C)(C)C [Compound 544, N-((1-(2-(tert-butyl(methyl)amino)-2-oxoethyl)piperidin-4-yl)methyl)-3-chloro-5-fluorobenzamide] | < 0.3 µM | 0.17 µM | 6 µM | –
CC(C)(C(=O)NCCN1CCC(CNC(=O)c2cccc(C(F)(F)F)c2)CC1)C(F)(F)F [Compound 492, N-((1-(2-(3,3,3-trifluoro-2,2-dimethylpropanamido)ethyl)piperidin-4-yl)methyl)-3-(trifluoromethyl)benzamide] | < 0.3 µM | 0.09 µM | 4.7 µM | –
O=C(NCC1CCN(CCNC(=O)C2(C(F)(F)F)CC2)CC1)c1cc(F)cc(Cl)c1 [Compound 472, 3-chloro-5-fluoro-N-((1-(2-(1-(trifluoromethyl)cyclopropanecarbox-amido)ethyl)piperidin-4-yl)methyl) benzamide] | < 0.3 µM | 0.04 µM | 2.8 µM | –
